Test results: PubChem BioAssay AID248 (DTP/NCI, 2004)
Where “and” joins values, the source holds several entries; their conditions need not be identical. Equal values may be shown once. Toxic doses and inconclusive results are not listed. Rule as the data show it: active = T/C of 150% or more; inactive = T/C below 125%. Square brackets hold non-standard residues; d marks the D form. Peptide text beside a SMILES is read from it. * marks the point of attachment. ξ: configuration not given here. Cbz = O=C(OCc1ccccc1)*; ξI = CCC(C)C(N)C(=O)O

System: L1210 leukemia ip in BDF1 mice, survival T/C
Assay: NCI In Vivo Anticancer Drug Screen. Data for tumor model L1210 Leukemia (intraperitoneal) in B6D2F1 (BDF1) mice
Settings: endpoint: mean survival time, higher = longer survival
How it was run: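 Survival endpoint. Drug-treated group vs vehicle group, expressed as T divided by C. Tumor passaged by transplantation.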

[1] = dose: 100.0 mg/kg/injection, schedule: Q04DX003 (ip), vehicle: saline with Tween-80
[2] = dose: 200.0 mg/kg/injection, schedule: Q04DX003 (ip), vehicle: saline with Tween-80
[3] = dose: 400.0 mg/kg/injection, schedule: Q04DX003 (ip), vehicle: saline with Tween-80
[4] = dose: 100.0 mg/kg/injection, schedule: Q01DX009 (ip), vehicle: Klucel (hydroxypropylcellulose) (HPC)
[5] = dose: 200.0 mg/kg/injection, schedule: Q01DX009 (ip), vehicle: Klucel (hydroxypropylcellulose) (HPC)
[6] = dose: 400.0 mg/kg/injection, schedule: Q01DX009 (ip), vehicle: Klucel (hydroxypropylcellulose) (HPC)
[7] = dose: 100.0 mg/kg/injection, schedule: Q01DX001 (ip), vehicle: saline with Tween-80
[8] = dose: 100.0 mg/kg/injection, schedule: Q04DX002 (ip), vehicle: saline with Tween-80
[9] = dose: 200.0 mg/kg/injection, schedule: Q01DX001 (ip), vehicle: saline with Tween-80
[10] = dose: 100.0 mg/kg/injection, schedule: Q01DX001 (ip), vehicle: saline
[11] = dose: 200.0 mg/kg/injection, schedule: Q01DX001 (ip), vehicle: saline
[12] = dose: 400.0 mg/kg/injection, schedule: Q01DX001 (ip), vehicle: saline
[13] = dose: 50.0 mg/kg/injection, schedule: Q01DX009 (ip), vehicle: Klucel (hydroxypropylcellulose) (HPC)
[14] = dose: 25.0 mg/kg/injection, schedule: Q01DX009 (ip), vehicle: saline
[15] = dose: 25.0 mg/kg/injection, schedule: Q04DX003 (ip), vehicle: saline
[16] = dose: 50.0 mg/kg/injection, schedule: Q01DX009 (ip), vehicle: saline
[17] = dose: 50.0 mg/kg/injection, schedule: Q04DX003 (ip), vehicle: saline
[18] = dose: 100.0 mg/kg/injection, schedule: Q04DX003 (ip), vehicle: saline
[19] = dose: 50.0 mg/kg/injection, schedule: Q01DX001 (ip), vehicle: saline
[20] = dose: 200.0 mg/kg/injection, schedule: Q04DX002 (ip), vehicle: saline with Tween-80
[21] = dose: 100.0 mg/kg/injection, schedule: Q04DX003 (ip), vehicle: Klucel (hydroxypropylcellulose) (HPC)
[22] = dose: 200.0 mg/kg/injection, schedule: Q04DX003 (ip), vehicle: Klucel (hydroxypropylcellulose) (HPC)
[23] = dose: 400.0 mg/kg/injection, schedule: Q04DX003 (ip), vehicle: Klucel (hydroxypropylcellulose) (HPC)
[24] = dose: 100.0 mg/kg/injection, schedule: Q01DX009 (ip), vehicle: saline
[25] = dose: 200.0 mg/kg/injection, schedule: Q01DX009 (ip), vehicle: saline

Measured: T/C

CCOC(=O)c1c(Cl)cc(C)nc1C
inactive: [1] 93 % of control | [2] 101 % of control | [3] 95 % of control

COc1cccc(OC)c1OC(=O)Nc1cccc(SC)c1
inactive: dose: 200.0 mg/kg/injection, schedule: Q01DX009 (ip), vehicle: saline with Tween-80 91 % of control | dose: 400.0 mg/kg/injection, schedule: Q01DX009 (ip), vehicle: saline with Tween-80 95 % of control

CCCC(=O)Nc1cc([N+](=O)[O-])ccc1OC
inactive: [4] 104 % of control | [5] 104 % of control | [6] 98 % of control

O=C(NO)c1ccccc1.O=C(NO)c1ccccc1.O=C(NO)c1ccccc1.[Fe]
inactive: dose: 100.0 mg/kg/injection, schedule: Q04DX003 (ip), vehicle: DMSO 93 % of control

CCCCOP(=O)(OCCCC)C(C)c1ccccc1 (stereo not given)
inactive: dose: 12.5 mg/kg/injection, schedule: Q04DX003 (ip), vehicle: saline with Tween-80 104 % of control | dose: 25.0 mg/kg/injection, schedule: Q01DX009 (ip), vehicle: saline with Tween-80 95 % of control and 100 % of control | dose: 25.0 mg/kg/injection, schedule: Q04DX002 (ip), vehicle: saline with Tween-80 95 % of control and 87 % of control | dose: 25.0 mg/kg/injection, schedule: Q04DX003 (ip), vehicle: saline with Tween-80 98 % of control | dose: 50.0 mg/kg/injection, schedule: Q01DX001 (ip), vehicle: saline with Tween-80 107 % of control | dose: 50.0 mg/kg/injection, schedule: Q01DX009 (ip), vehicle: saline with Tween-80 99 % of control and 104 % of control | dose: 50.0 mg/kg/injection, schedule: Q04DX002 (ip), vehicle: saline with Tween-80 103 % of control and 90 % of control | dose: 50.0 mg/kg/injection, schedule: Q04DX003 (ip), vehicle: saline with Tween-80 93 % of control and 106 % of control | [7] 107 % of control | [8] 94 % of control and 96 % of control and 108 % of control | [9] 94 % of control

O=C(Nc1ccccc1C(F)(F)F)N(Cc1ccccc1)c1ccccc1
inactive: [4] 93 % of control | [5] 92 % of control | [6] 98 % of control

Clc1ccccc1N1CCN(c2c3c(nc4ccccc24)CCCCC3)CC1
inactive: [10] 97 % of control | [11] 103 % of control | [12] 97 % of control

O=c1[nH]c2cnccc2c(=O)n1OS(=O)(=O)c1ccccc1
inactive: [13] 90 % of control | [4] 90 % of control | [5] 97 % of control

NCCCC1C(CN)C2CC1C1C3CCC(C3)C21 (stereo not given)
inactive: dose: 3.12 mg/kg/injection, schedule: Q04DX003 (ip), vehicle: saline 100 % of control | dose: 6.25 mg/kg/injection, schedule: Q04DX003 (ip), vehicle: saline 100 % of control | dose: 12.5 mg/kg/injection, schedule: Q01DX009 (ip), vehicle: saline 106 % of control | dose: 12.5 mg/kg/injection, schedule: Q04DX003 (ip), vehicle: saline 97 % of control | [14] 110 % of control | [15] 97 % of control and 103 % of control | [16] 106 % of control | [17] 105 % of control | [18] 98 % of control

O=C(Nc1ccc(Cl)c(Cl)c1)C(Cl)Cl
inactive: dose: 100.0 mg/kg/injection, schedule: Q04DX002 (ip), vehicle: Klucel (hydroxypropylcellulose) (HPC) 109 % of control | dose: 400.0 mg/kg/injection, schedule: Q04DX002 (ip), vehicle: Klucel (hydroxypropylcellulose) (HPC) 103 % of control

Cc1ccc(N2C(=O)ON(c3ccccc3)C2c2ccccc2)cc1 (stereo not given)
inactive: [19] 100 % of control | [10] 102 % of control | [11] 106 % of control | [12] 108 % of control

O=C(O)C1CSC2(CCCCC2)N1 (stereo not given)
inactive: [18] 93 % of control | dose: 200.0 mg/kg/injection, schedule: Q04DX003 (ip), vehicle: saline 98 % of control | dose: 400.0 mg/kg/injection, schedule: Q04DX003 (ip), vehicle: saline 89 % of control

O=C1CCCC/C1=C\c1cccc2ccccc12
inactive: [8] 103 % of control | [20] 96 % of control | dose: 400.0 mg/kg/injection, schedule: Q04DX002 (ip), vehicle: saline with Tween-80 88 % of control

CCC(C)C(NC(=O)CNC(=O)OCc1ccccc1)C(=O)OC (stereo not drawn) (Cbz-Gly-[ξI]-OMe)
inactive: [1] 101 % of control | [2] 98 % of control | [3] 96 % of control

O=[N+]([O-])c1ccc(Nc2ccccc2)nc1
inactive: dose: 50.0 mg/kg/injection, schedule: Q01DX001 (ip), vehicle: carboxymethylcellulose (CMC) 106 % of control | dose: 100.0 mg/kg/injection, schedule: Q01DX001 (ip), vehicle: carboxymethylcellulose (CMC) 106 % of control | dose: 200.0 mg/kg/injection, schedule: Q01DX001 (ip), vehicle: carboxymethylcellulose (CMC) 101 % of control | dose: 400.0 mg/kg/injection, schedule: Q01DX001 (ip), vehicle: carboxymethylcellulose (CMC) 106 % of control

COc1ccccc1/C=C/c1cnccn1
inactive: [4] 98 % of control | [21] 96 % of control | [5] 101 % of control | [22] 102 % of control | [6] 93 % of control | [23] 104 % of control

CC(=O)/C=C/c1ccc(O)cc1
inactive: [4] 98 % of control | [5] 96 % of control | [6] 100 % of control

O=S(=O)(Nc1ccc(F)cc1)c1ccccc1
inactive: [4] 96 % of control | [21] 103 % of control | [5] 102 % of control | [22] 95 % of control | [6] 105 % of control | [23] 93 % of control

CSCCCCCCSC
inactive: [16] 101 % of control | [24] 96 % of control | [25] 90 % of control

CCCCN(CCCC)CCP(=O)(OCC)OCC
inactive: [8] 97 % of control | [20] 105 % of control

Nc1cc(N)cc(Cc2ccccc2)c1
inactive: [13] 100 % of control | [4] 95 % of control | [21] 100 % of control | [5] 103 % of control | [22] 102 % of control | [6] 92 % of control | [23] 98 % of control

c1ccc2cc(C3SCCS3)ccc2c1
inactive: dose: 75.0 mg/kg/injection, schedule: Q04DX003 (ip), vehicle: Klucel (hydroxypropylcellulose) (HPC) 88 % of control | dose: 100.0 mg/kg/injection, schedule: Q01DX001 (ip), vehicle: Klucel (hydroxypropylcellulose) (HPC) 95 % of control | dose: 150.0 mg/kg/injection, schedule: Q04DX003 (ip), vehicle: Klucel (hydroxypropylcellulose) (HPC) 86 % of control | dose: 200.0 mg/kg/injection, schedule: Q01DX001 (ip), vehicle: Klucel (hydroxypropylcellulose) (HPC) 97 % of control | dose: 300.0 mg/kg/injection, schedule: Q04DX003 (ip), vehicle: Klucel (hydroxypropylcellulose) (HPC) 110 % of control | dose: 400.0 mg/kg/injection, schedule: Q01DX001 (ip), vehicle: Klucel (hydroxypropylcellulose) (HPC) 101 % of control

CCOCc1cnc(C)nc1N
inactive: [7] 94 % of control | [9] 94 % of control

CCOC(=O)c1ccc(NC(=O)Nc2ccc(SC)cc2)cc1
inactive: [4] 98 % of control | [5] 95 % of control | [6] 104 % of control

CCOC(=O)CC(C)(C)C1CC1
inactive: [19] 91 % of control | [10] 96 % of control | [11] 96 % of control | [12] 94 % of control

CC1(C)N=C(N)N=C(N)N1c1ccc(C(=O)c2ccccc2)cc1
inactive: [15] 96 % of control | [17] 89 % of control

c1ccc2c(c1)C[N+](=C1CCCCC1)Cc1ccccc1-2
inactive: [14] 103 % of control | [16] 106 % of control | [24] 101 % of control | [18] 99 % of control

CC1(CCc2ccc(N)cc2)NC(=O)NC1=O (stereo not given)
inactive: [21] 110 % of control | [22] 96 % of control | [23] 93 % of control

CC(C)(C)[CH2][Sn]([Cl])([CH2]C(C)(C)C)[CH2]C(C)(C)C
inactive: dose: 12.5 mg/kg/injection, schedule: Q04DX002 (ip), vehicle: saline with Tween-80 92 % of control

CC(=O)CC(=O)Nc1ccc(Cc2ccc(Br)cc2)cc1
inactive: [10] 96 % of control | [11] 95 % of control | [12] 91 % of control

CCN(CC)CCSC(=O)c1ccccc1
inactive: [16] 94 % of control | [24] 100 % of control | [25] 100 % of control
